30 compounds from BindingDB's records for doi:10.1016/j.bmcl.2009.08.049 (Genentech, 2009) can be followed below.

Chain of Sonic hedgehog protein (Q62226 25-198 limits assumed): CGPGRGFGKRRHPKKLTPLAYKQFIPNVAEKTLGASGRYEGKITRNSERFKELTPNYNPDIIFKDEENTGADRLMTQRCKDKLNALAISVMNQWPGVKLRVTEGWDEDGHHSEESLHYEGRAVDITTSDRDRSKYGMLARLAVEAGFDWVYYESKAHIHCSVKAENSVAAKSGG

The experiment addresses Sonic hedgehog protein (Mus musculus, UniProt Q62226). In words: Inhibition of SHH in mouse C3H10T1/2 cells by Gli-luciferase reporter gene assay. Background: Reporter assays use an easily measured gene product as a stand-in for the process of interest.
`Cc1nc(C(F)(F)F)ccc1C(=O)Nc1ccc(Cl)c(-n2cc3ccccc3n2)c1` [N-(4-chloro-3-(2H-indazol-2-yl)phenyl)-2-methyl-6-(trifluoromethyl)nicotinamide]: half-maximal inhibition (IC50) required 80 nM.

As for `Cc1nc(C(F)(F)F)ccc1C(=O)Nc1ccc(Cl)c(-c2nc3ccccc3s2)c1` [N-(3-(benzo[d]thiazol-2-yl)-4-chlorophenyl)-2-methyl-6-(trifluoromethyl)nicotinamide], half-maximal inhibition (IC50) required 70 nM. As for `Cc1nc(C(F)(F)F)ccc1C(=O)Nc1ccc(Cl)c(-n2cccn2)c1` [N-(4-chloro-3-(1H-pyrazol-1-yl)phenyl)-2-methyl-6-(trifluoromethyl)nicotinamide], half-maximal inhibition (IC50) was put at 450 nM. With `Cc1nc(C(F)(F)F)ccc1C(=O)Nc1ccc(Cl)c(-c2cccnc2)c1` [N-(4-chloro-3-(pyridin-3-yl)phenyl)-2-methyl-6-(trifluoromethyl)nicotinamide] the figure was 10000 nM; with `CS(=O)(=O)c1cccc(C(=O)Nc2ccc(Cl)c(-c3ccccn3)c2)c1` [N-(4-chloro-3-(pyridin-2-yl)phenyl)-3-(methylsulfonyl)benzamide], 120 nM. Take `Cc1nc(C(F)(F)F)ccc1C(=O)Nc1ccc(Cl)c(-c2nc3ccccc3n2C)c1` [N-(4-chloro-3-(1-methyl-1H-benzo[d]imidazol-2-yl)phenyl)-2-methyl-6-(trifluoromethyl)nicotinamide]: half-maximal inhibition (IC50) required 9 nM. Under `Cc1nc(C(F)(F)F)ccc1C(=O)Nc1ccc(Cl)c(C(=O)Nc2ccccc2)c1` [N-(4-chloro-3-(phenylcarbamoyl)phenyl)-2-methyl-6-(trifluoromethyl)nicotinamide] stands 140 nM; under `Cc1nc(C(F)(F)F)ccc1C(=O)Nc1ccc(Cl)c(-c2cnc3ccccc3n2)c1` [N-(4-chloro-3-(quinoxalin-2-yl)phenyl)-2-methyl-6-(trifluoromethyl)nicotinamide], 52 nM. As to `O=C(Nc1ccc(Cl)c(-c2ccccn2)c1)c1ccccc1` [N-(4-chloro-3-(pyridin-2-yl)phenyl)benzamide], the IC50 (commonly the concentration that gives 50% inhibition) is 800 nM. With `Cc1nc(C(F)(F)F)ccc1C(=O)Nc1ccc(Cl)c(-c2nc3c(n2C)CCCC3)c1` [N-(4-chloro-3-(1-methyl-4,5,6,7-tetrahydro-1H-benzo[d]imidazol-2-yl)phenyl)-2-methyl-6-(trifluoromethyl)nicotinamide] the figure was 150 nM. Under `Cc1ccc(C(=O)Nc2ccc(Cl)c(-c3ccccn3)c2)c(C)n1` [N-(4-chloro-3-(pyridin-2-yl)phenyl)-2,6-dimethylnicotinamide] stands 130 nM; under `O=C(Nc1ccc(Cl)c(-c2ccccn2)c1)c1ccccc1Cl` [2-chloro-N-(4-chloro-3-(pyridin-2-yl)phenyl)benzamide], 110 nM. Under `Cc1nc(C(F)(F)F)ccc1C(=O)Nc1ccc(Cl)c(-c2nc3ccccc3[nH]2)c1` [N-(3-(1H-benzo[d]imidazol-2-yl)-4-chlorophenyl)-2-methyl-6-(trifluoromethyl)nicotinamide] stands 12 nM; under `O=C(Nc1ccc(Cl)c(-c2ccccn2)c1)c1ccccn1` [N-(4-chloro-3-(pyridin-2-yl)phenyl)picolinamide], 3000 nM; under `Cc1nc(C(F)(F)F)ccc1C(=O)Nc1ccc(Cl)c(-c2cn3ccsc3n2)c1` [N-(4-chloro-3-(imidazo[2,1-b]thiazol-6-yl)phenyl)-2-methyl-6-(trifluoromethyl)nicotinamide], 200 nM. For `Cc1nc(C(F)(F)F)ccc1C(=O)Nc1ccc(Cl)c(-c2cc[nH]n2)c1` [N-(4-chloro-3-(1H-pyrazol-3-yl)phenyl)-2-methyl-6-(trifluoromethyl)nicotinamide], half-maximal inhibition (IC50) required 9000 nM. Under `Cc1nc(C(F)(F)F)ccc1C(=O)Nc1ccc(Cl)c(-c2cc3ccccn3n2)c1` [N-(4-chloro-3-(pyrazolo[1,5-a]pyridin-2-yl)phenyl)-2-methyl-6-(trifluoromethyl)nicotinamide] stands 170 nM; under `Cc1nc(C(F)(F)F)ccc1C(=O)Nc1ccc(Cl)c(-c2cc3ccccn3c2)c1` [N-(4-chloro-3-(indolizin-2-yl)phenyl)-2-methyl-6-(trifluoromethyl)nicotinamide], 4200 nM; under `Cc1nc(C(F)(F)F)ccc1C(=O)Nc1ccc(Cl)c(-c2ccncc2)c1` [N-(4-chloro-3-(pyridin-4-yl)phenyl)-2-methyl-6-(trifluoromethyl)nicotinamide], 2400 nM. With `CS(=O)(=O)c1ccc(C(=O)Nc2ccc(Cl)c(-c3ccccn3)c2)cc1` [N-(4-chloro-3-(pyridin-2-yl)phenyl)-4-(methylsulfonyl)benzamide] the figure was 40 nM.

In the case of `O=C(Nc1ccc(Cl)c(-c2ccccn2)c1)c1cccnc1` [N-(4-chloro-3-(pyridin-2-yl)phenyl)nicotinamide], the IC50 was 600 nM. Under `Cc1nc(C(F)(F)F)ccc1C(=O)Nc1ccc(Cl)c(-c2ccccn2)c1` [N-(4-chloro-3-(pyridin-2-yl)phenyl)-2-methyl-6-(trifluoromethyl)nicotinamide] stands 42 nM; under `O=C(Nc1ccc(Cl)c(-c2ccccn2)c1)c1cccc(Cl)c1` [3-chloro-N-(4-chloro-3-(pyridin-2-yl)phenyl)benzamide], 1500 nM. With `O=C(Nc1ccc(Cl)c(-c2ccccn2)c1)c1ccc(Cl)cc1` [4-chloro-N-(4-chloro-3-(pyridin-2-yl)phenyl)benzamide] the figure was 1500 nM; with `Cc1nc(C(F)(F)F)ccc1C(=O)Nc1ccc(Cl)c(-c2ncccn2)c1` [N-(4-chloro-3-(pyrimidin-2-yl)phenyl)-2-methyl-6-(trifluoromethyl)nicotinamide], 8000 nM; with `Cc1nc(C(F)(F)F)ccc1C(=O)Nc1ccc(Cl)c(-c2cnccn2)c1` [N-(4-chloro-3-(pyrazin-2-yl)phenyl)-2-methyl-6-(trifluoromethyl)nicotinamide], 1700 nM. For `Cc1nc(C(F)(F)F)ccc1C(=O)Nc1ccc(Cl)c(-c2cc3ccccc3[nH]2)c1` [N-(4-chloro-3-(1H-indol-2-yl)phenyl)-2-methyl-6-(trifluoromethyl)nicotinamide], the IC50 is 500 nM. Under `Cc1c[nH]c(-c2cc(NC(=O)c3ccc(C(F)(F)F)nc3C)ccc2Cl)n1` [N-(4-chloro-3-(5-methyl-1H-imidazol-2-yl)phenyl)-2-methyl-6-(trifluoromethyl)nicotinamide] stands 256 nM. Under `O=C(Nc1ccc(Cl)c(-c2ccccn2)c1)c1ccncc1` [N-(4-chloro-3-(pyridin-2-yl)phenyl)isonicotinamide] stands 700 nM. Under `Cc1nc(C(F)(F)F)ccc1C(=O)Nc1ccc(Cl)c(-c2ccn(C)n2)c1` [N-(4-chloro-3-(1-methyl-1H-pyrazol-3-yl)phenyl)-2-methyl-6-(trifluoromethyl)nicotinamide] stands 550 nM.
